This note sets out measurements from patent publication US9139609B2, “C-4″ position substituted macrolide derivative” (priority 2011, dated 2015).

In brackets after ≈: the same amount, converted by molar mass. Bounds are passed on as bounds.

Assay [1] relates to Streptococcus pneumoniae ATCC700904. In words: In vitro antibacterial activity, microbroth dilution method (CLSI method), test bacterium C (erythromycin resistant). Conditions: read-out: MIC (minimum inhibitory concentration), test bacterium C. In kind it is cell-based. On the procedure:
(§1) In vitro antibacterial activities of the compounds of the present invention against various test bacteria were measured according to the microbroth dilution method (CLSI method). Among them, the bacteria C, D and E are erythromycin resistant bacteria. The MIC values (minimum inhibitory concentration, μg/ml) for the test bacteria A and B are exemplified in Table 22.
(Broth dilution looks for growth in wells or tubes with falling amounts of substance.)

In assay [2] the test system is Streptococcus pyogenes M808. Put plainly: In vitro antibacterial activity, microbroth dilution method (CLSI method), test bacterium D (erythromycin resistant). The note with it: read-out: MIC (minimum inhibitory concentration), test bacterium D. In kind it is cell-based. As for the experimental part:
as §1

`CC[C@H]1OC(=O)[C@H](C)[C@@H](O[C@H]2C[C@@](C)(OC)[C@@](O)(CN(C)CCN(CC)C(C)=O)[C@H](C)O2)[C@H](C)[C@@H](O[C@@H]2O[C@H](C)C[C@H](N(C)C)[C@H]2O)[C@@](C)(OC)C[C@@H](C)C(=O)[C@H](C)[C@H]2NC(=O)O[C@@]21C` [Example 263]: the MIC in assay [1] is 0.5 to 2 mg/L (≈ 0.538 to 2.15 µM); in assay [2], at least 16 mg/L.

Take `CC[C@H]1OC(=O)[C@H](C)[C@@H](O[C@H]2C[C@@](C)(OC)[C@@](O)(CN(C)CCN(CC)C(=O)OC)[C@H](C)O2)[C@H](C)[C@@H](O[C@@H]2O[C@H](C)C[C@H](N(C)C)[C@H]2O)[C@@](C)(OC)C[C@@H](C)C(=O)[C@H](C)[C@H]2NC(=O)O[C@@]21C` [Example 264]: the results for the MIC in assay [1] and in assay [2] were 0.12 to 0.25 mg/L (≈ 0.127 to 0.264 µM) and at least 16 mg/L, respectively.

For the compound `CC[C@H]1OC(=O)[C@H](C)[C@@H](O[C@H]2C[C@@](C)(OC)[C@@](O)(CN(C)C(=O)CN(CC)CC)[C@H](C)O2)[C@H](C)[C@@H](O[C@@H]2O[C@H](C)C[C@H](N(C)C)[C@H]2O)[C@@](C)(OC)C[C@@H](C)C(=O)[C@H](C)[C@H]2NC(=O)O[C@@]21C` [Example 329], the MIC was 0.5 to 2 mg/L (≈ 0.538 to 2.15 µM) in assay [1] and at least 16 mg/L in assay [2].

With `CC[C@H]1OC(=O)[C@H](C)[C@@H](O[C@H]2C[C@@](C)(OC)[C@@](O)(CN(C)CCN(C)C(C)(C)c3ccccc3OC)[C@H](C)O2)[C@H](C)[C@@H](O[C@@H]2O[C@H](C)C[C@H](N(C)C)[C@H]2O)[C@]2(C)C[C@@H](C)C(O2)[C@H](C)[C@H]2NC(=O)O[C@@]21C` [Example 332], the MIC in assay [1] was 0.5 to 2 mg/L (≈ 0.504 to 2.02 µM); in assay [2], at least 16 mg/L.

Turning to `CC[C@H]1OC(=O)[C@H](C)[C@@H](O[C@H]2C[C@@](C)(OC)[C@@](O)(CN(C)CCN(C)C)[C@H](C)O2)[C@H](C)[C@@H](O[C@@H]2O[C@H](C)C[C@H](N(C)C)[C@H]2O)[C@@](C)(OC(=O)NC/C=C/c2ccc3ncccc3c2)C[C@@H](C)C(=O)[C@H](C)[C@H]2NC(=O)O[C@@]21C` [Example 348], the MIC in assay [1] fell in the range of 0.12 to 0.25 mg/L (≈ 0.111 to 0.231 µM); in assay [2], 4 to 8 mg/L (≈ 3.69 to 7.38 µM).

Regarding `CC[C@H]1OC(=O)[C@H](C)[C@@H](O[C@H]2C[C@@](C)(OC)[C@@](O)(CN(CC)CCN(CC)CC)[C@H](C)O2)[C@H](C)[C@@H](O[C@@H]2O[C@H](C)C[C@H](N(C)C)[C@H]2O)[C@@](C)(OC)C[C@@H](C)C(=O)[C@H](C)[C@H]2N(CCNS(C)(=O)=O)C(=O)O[C@]12C` [Example 413], the MIC was 0.12 to 0.25 mg/L (≈ 0.114 to 0.238 µM) in assay [1] and 4 to 8 mg/L (≈ 3.81 to 7.62 µM) in assay [2].

In the case of `CC[C@H]1OC(=O)[C@H](C)[C@@H](O[C@H]2C[C@@](C)(OC)[C@@](O)(CN(C)CCN(CC)C3CCC3)[C@H](C)O2)[C@H](C)[C@@H](O[C@@H]2O[C@H](C)C[C@H](N(C)C)[C@H]2O)[C@@](C)(OC)C[C@@H](C)C(=O)[C@H](C)[C@H]2N(CCCS(C)(=O)=O)C(=O)O[C@]12C` [Example 418], the MIC in assay [1] was 0.12 to 0.25 mg/L (≈ 0.113 to 0.236 µM); in assay [2], at most 2 mg/L.

`CC[C@H]1OC(=O)[C@H](C)[C@@H](O[C@H]2C[C@@](C)(OC)[C@@](O)(CN(C)CCN(CC)CC)[C@H](C)O2)[C@H](C)[C@@H](O[C@@H]2O[C@H](C)C[C@H](N(C)C)[C@H]2O)[C@@](C)(OC)C[C@@H](C)C(=O)[C@H](C)[C@H]2N(CCN3CCNS3(=O)=O)C(=O)O[C@]12C` [Example 440]: the MIC fell in the range of 0.12 to 0.25 mg/L (≈ 0.113 to 0.235 µM) in assay [1] and 4 to 8 mg/L (≈ 3.76 to 7.52 µM) in assay [2].

Regarding `CC[C@H]1OC(=O)[C@H](C)[C@@H](O[C@H]2C[C@@](C)(OC)[C@@](O)(CN(CCOC)CCN(CC)CC)[C@H](C)O2)[C@H](C)[C@@H](O[C@@H]2O[C@H](C)C[C@H](N(C)C)[C@H]2O)[C@@](C)(OC)C[C@@H](C)C(=O)[C@H](C)[C@H]2N(CCNS(C)(=O)=O)C(=O)O[C@]12C` [Example 443], the MIC in assay [1] was 0.12 to 0.25 mg/L (≈ 0.111 to 0.231 µM); in assay [2], 4 to 8 mg/L (≈ 3.7 to 7.4 µM).

As for `CC[C@H]1OC(=O)[C@H](C)[C@@H](O[C@H]2C[C@@](C)(OC)[C@@](O)(CN(C)CCN3C4CCC3CC4)[C@H](C)O2)[C@H](C)[C@@H](O[C@@H]2O[C@H](C)C[C@H](N(C)C)[C@H]2O)[C@@](C)(OC)C[C@@H](C)C(=O)[C@H](C)[C@H]2N(CCNS(C)(=O)=O)C(=O)O[C@]12C` [Example 446], the MIC lay in the range of 0.12 to 0.25 mg/L (≈ 0.113 to 0.236 µM) in assay [1] and 4 to 8 mg/L (≈ 3.77 to 7.54 µM) in assay [2].

As to `CC[C@H]1OC(=O)[C@H](C)[C@@H](O[C@H]2C[C@@](C)(OC)[C@@](O)(CN(C)CCN(C(C)C)C(C)C)[C@H](C)O2)[C@H](C)[C@@H](O[C@@H]2O[C@H](C)C[C@H](N(C)C)[C@H]2O)[C@@](C)(OC)C[C@@H](C)C(=O)[C@H](C)[C@H]2N(CCS(=O)(=O)NC)C(=O)O[C@]12C` [Example 451], the results for the MIC in assay [1] and in assay [2] were 0.12 to 0.25 mg/L (≈ 0.113 to 0.235 µM) and 4 to 8 mg/L (≈ 3.76 to 7.52 µM), respectively.

Regarding `CC[C@H]1OC(=O)[C@H](C)[C@@H](O[C@H]2C[C@@](C)(OC)[C@@](O)(CN(C)CCN(C(C)C)C(C)C)[C@H](C)O2)[C@H](C)[C@@H](O[C@@H]2O[C@H](C)C[C@H](N(C)C)[C@H]2O)[C@@](C)(OC)C[C@@H](C)C(=O)[C@H](C)[C@H]2N(CCOS(N)(=O)=O)C(=O)O[C@]12C` [Example 456], the MIC in assay [1] is 0.12 to 0.25 mg/L (≈ 0.113 to 0.234 µM); in assay [2], at most 2 mg/L.
